The target of assay [1] is T1, human ANO6 (Homo sapiens, UniProt Q4KMQ2).
T1 construct: expressed in transfected cells
T1 sequence (Q4KMQ2 1-931 isoform Q4KMQ2-2): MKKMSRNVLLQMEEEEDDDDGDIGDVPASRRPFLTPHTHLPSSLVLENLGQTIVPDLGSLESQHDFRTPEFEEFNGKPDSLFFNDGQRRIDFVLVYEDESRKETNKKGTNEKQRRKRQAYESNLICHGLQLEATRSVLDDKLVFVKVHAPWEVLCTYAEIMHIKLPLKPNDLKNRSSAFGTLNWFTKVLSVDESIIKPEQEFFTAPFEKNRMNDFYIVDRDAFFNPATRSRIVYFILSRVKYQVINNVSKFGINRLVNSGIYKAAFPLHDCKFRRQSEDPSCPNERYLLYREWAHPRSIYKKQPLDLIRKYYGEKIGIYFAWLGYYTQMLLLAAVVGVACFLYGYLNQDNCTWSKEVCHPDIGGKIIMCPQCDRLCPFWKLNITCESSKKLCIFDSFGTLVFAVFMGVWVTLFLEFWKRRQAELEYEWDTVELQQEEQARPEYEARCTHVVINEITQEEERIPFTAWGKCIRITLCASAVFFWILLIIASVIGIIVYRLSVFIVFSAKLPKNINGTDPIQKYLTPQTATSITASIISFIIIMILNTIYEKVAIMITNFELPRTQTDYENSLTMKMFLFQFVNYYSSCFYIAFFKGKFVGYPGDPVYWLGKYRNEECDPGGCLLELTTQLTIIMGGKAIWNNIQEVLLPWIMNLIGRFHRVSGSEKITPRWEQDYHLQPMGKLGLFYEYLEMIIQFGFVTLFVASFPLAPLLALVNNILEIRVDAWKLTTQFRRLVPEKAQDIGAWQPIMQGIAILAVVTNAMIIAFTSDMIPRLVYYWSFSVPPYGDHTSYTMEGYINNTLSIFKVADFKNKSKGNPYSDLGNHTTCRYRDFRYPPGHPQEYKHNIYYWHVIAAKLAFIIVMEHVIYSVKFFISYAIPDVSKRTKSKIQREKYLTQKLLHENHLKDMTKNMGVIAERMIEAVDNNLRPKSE
The assay can be described thus: YFP quenching assay (ANO6 ion channel activity). The class given is cell-based. Particulars: test compound 30 μM, 10 μM ionomycin, read-out: Inhibition Level 30 μM. An excerpt: Example 3: YFP Quenching Assay
1. Materials and Instruments
Ionomycin (Alomonelab cat. #I-700), FLUOstar Omega microplate reader (BMG Labtech, Ortenberg, Germany), and MARS Data Analysis Software (BMG Labtech)
Fisher rat thyroid (FRT) cells stably expressing human ANO6 (GenBank accession no. NP_001191732.1, provided by J. H. Nam, Dongguk University College of Medicine, Korea) and halide sensor mutant YFP-H148Q/I152L/F46L) were constructed and grown in Dulbecco's modified Eagle's medium Nutrient Mixture F-12 (DMEM/F-12) supplemented 10% FBS, 100 units/mL penicillin, 500 μg/mL hygromycin B and 100 μg/mL neomycin.
Fisher rat thyroid (FRT) cells stably expressing human ANO6 and halide sensor mutant YFP (H148Q/I152L/F46L) were seeded in black walled 96 well plates and incubated in a 37° C., 5% CO2 incubator to reach about 100% cell confluency. Then, each well of the 96 well plates were washed for several times with phosphate buffered saline (PBS), and 50 μL of PBS was added to each well. Test compounds (100× in DMSO) were added to each well to be 1% v/v DMSO. After incubation for 10 minutes in 40° C., the 96 well plates were transferred to a plate reader, and YFP fluorescence changed by SCN-introduced into cells through activated ANO6 were measured by the following steps.
(1) YFP fluorescence signals were recorded in every 0.4 seconds.
(2) Basal YFP fluorescence signals were recorded for 1 second.
(3) 140 mM SCN-(50 μL) containing 10 μM ionomycin was injected to each well, and YFP fluorescence signals were recorded.
The inhibitory activity (%) of each of the test compounds was obtained by the following steps.
(1) Background signals were subtracted from recording values, and the resulting values were converted to relative percentages. The values at 0 second were set to be 100%.
(2) Differences between the values at 3.6 seconds and those of at 7.6 seconds were calculated.
(3) In each row of 96 well plate, the inhibitory activity of each of the test compounds was calculated as percentages. The inhibitory activity of a negative control group to which neither compounds nor ionomycin were treated was set to be 100%, and the inhibitory activity of a positive control group to which ionomycin was treated and compounds were not treated was set to be 0%.
(4) The assay was performed in duplicate or triplicate, and the results were averaged.

Assay [2] concerns the target T1, human ANO6. The assay can be described thus: LACT C2 assay (phosphatidylserine scramblase function assay). The class given is cell-based. Particulars: FRT cells expressing human ANO6, 10 μM ionomycin; for inhibition at 0.1 µM: test compound 100 nM, read-out: Inhibition Level 100 nM; for inhibition at 1 µM: test compound 1 μM, read-out: Inhibition Level 1 μM. The gist of the method:
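FRT cells stably expressing human ANO6 were pretreated with compound (1% DMSO) for 10 min, then stimulated with 10 μM ionomycin for 10 min. Surface phosphatidylserine was stained with 500 nM Lact-C2-GFP and quantified by imaging. Inhibition was scaled between unstimulated (100%) and ionomycin-only (0%) controls, averaged over triplicates.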

With `Cc1ccc(-c2ccc(Nc3cccc(C(=O)NCc4ccc(Cl)cc4)c3)nn2)cc1` [Compound A28], the inhibition (commonly the drop in the measured response relative to a control, in per cent) at 30 µM on human ANO6 [1] is 30 to 60%.

Consider `O=C(Nc1cccc(F)c1)c1cccc(Nc2nnc(-c3ccccc3)o2)c1` [Compound 158, N-(3-fluorophenyl)-3-((5-phenyl-1,3,4-oxadiazol-2-yl)amino)benzamide], for which, at human ANO6 [2], the inhibition at 0.1 µM is less than 30% and the inhibition at 1 µM was less than 30%.

In the case of `O=C(O)c1ccc(CCNC(=O)c2cccc(Nc3ncc(-c4cccc(F)c4)cn3)c2)cc1` [Compound 130, 4-(2-(3-((5-(3-fluorophenyl)pyrimidin-2-yl)amino)benzamido)ethyl)benzoic acid], at human ANO6 [2], the inhibition at 0.1 µM was less than 30% and the inhibition at 1 µM was less than 30%.

As for `O=C(NCc1ccc(F)c(Br)c1)c1cccc(Nc2ccc(-c3ccccc3)nn2)c1` [Compound 201, N-(3-bromo-4-fluorobenzyl)-3-((6-phenylpyridazin-3-yl)amino)benzamide], on human ANO6 [2], the inhibition at 0.1 µM is less than 30% and the inhibition at 1 µM was in the range of 30 to 60%.

Turning to `O=C(NCc1cc(F)c(F)cc1F)c1cccc(Nc2ncc(-c3cccc(F)c3)cn2)c1` [Compound 209, 3-((5-(3-fluorophenyl)pyrimidin-2-yl)amino)-N-(2,4,5-trifluorobenzyl)benzamide], on human ANO6 [2], the inhibition at 0.1 µM is less than 30% and the inhibition at 1 µM is less than 30%.

On to `O=C(N[C@@H]1C[C@H]1c1ccccc1)C12CC3CC(CC(Nc4ccc(-c5ccccc5)nn4)(C3)C1)C2` [Compound 166, N-((1R,2S)-2-phenylcyclopropyl)-3-((6-phenylpyridazin-3-yl)amino)adamantane-1-carboxamide], for which the inhibition at 0.1 µM on human ANO6 [2] is less than 30%.

Consider `Cc1c(C2CC2NC(=O)c2cccc(Nc3ncc(-c4cccc(F)c4)cn3)c2)cnn1C` (stereo not drawn) [Compound 150, N-(2-(1,5-dimethyl-1H-pyrazol-4-yl)cyclopropyl)-3-((5-(3-fluorophenyl)pyrimidin-2-yl)amino)benzamide], for which, at human ANO6 [2], the inhibition at 0.1 µM was less than 30% and the inhibition at 1 µM is less than 30%.

As for `O=C(NC1(c2ccccc2)CC1)c1cccc(Nc2ccc(-c3cccc(F)c3)cn2)c1` [Compound 134, 3-((5-(3-fluorophenyl)pyridin-2-yl)amino)-N-(1-phenylcyclopropyl)benzamide], at human ANO6 [2], the inhibition at 0.1 µM was less than 30% and the inhibition at 1 µM is 30 to 60%.

As for `O=C(NCc1ccc(Cl)cc1)c1cccc(Nc2ncc(-c3cccc(F)c3)cn2)c1` [Compound A101], on human ANO6 [2], the inhibition at 0.1 µM is less than 30% and the inhibition at 1 µM fell in the range of 30 to 60%.

As for `Nc1ccc(NC(=O)c2cccc(Nc3ccc(-c4cccc(F)c4)cn3)c2)cc1` [Compound 146, N-(4-aminophenyl)-3-((5-(3-fluorophenyl)pyridin-2-yl)amino)benzamide], at human ANO6 [2], the inhibition at 0.1 µM is less than 30% and the inhibition at 1 µM was in the range of 30 to 60%.

For the compound `Cc1ccc(NC(=O)c2cccc(Nc3ncc(-c4cccc(F)c4)cn3)c2)cc1` [Compound A102], on human ANO6 [2], the inhibition at 0.1 µM is less than 30% and the inhibition at 1 µM was no less than 60%.

Regarding `COc1cc(CNC(=O)c2cccc(Nc3ccc(-c4ccccc4)nn3)c2)ccc1F` [Compound 232, N-(4-fluoro-3-methoxybenzyl)-3-((6-phenylpyridazin-3-yl)amino)benzamide], at human ANO6 [2], the inhibition at 0.1 µM is less than 30% and the inhibition at 1 µM was less than 30%.

As for `Cc1c(C2CC2NC(=O)c2cccc(Nc3ncc(-c4ccccc4)cn3)c2)cnn1C` (stereo not drawn) [Compound 152, N-(2-(1,5-dimethyl-1H-pyrazol-4-yl)cyclopropyl)-3-((5-phenylpyrimidin-2-yl)amino)benzamide], on human ANO6 [2], the inhibition at 0.1 µM was less than 30% and the inhibition at 1 µM was less than 30%.

Turning to `O=C(NC1CCCCCC1)c1cccc(Nc2ncc(-c3cccc(F)c3)cn2)c1` [Compound A94], the inhibition at 0.1 µM on human ANO6 [2] is less than 30%.

As to `O=C(Nc1nccs1)c1cccc(Nc2ncc(-c3cccc(F)c3)cn2)c1` [Compound 138, 3-((5-(3-fluorophenyl)pyrimidin-2-yl)amino)-N-(thiazol-2-yl)benzamide], on human ANO6 [2], the inhibition at 0.1 µM was less than 30% and the inhibition at 1 µM is no less than 60%.

For the compound `O=C(NCc1ccc(F)c(F)c1F)c1cccc(Nc2ncc(-c3cccc(F)c3)cn2)c1` [Compound 217, 3-((5-(3-fluorophenyl)pyrimidin-2-yl)amino)-N-(2,3,4-trifluorobenzyl)benzamide], at human ANO6 [2], the inhibition at 0.1 µM was less than 30% and the inhibition at 1 µM was 30 to 60%.

As for `CN(CCCNC(=O)c1cccc(Nc2ccc(-c3ccccc3)nn2)c1)Cc1ccccc1` [Compound A95], on human ANO6 [2], the inhibition at 0.1 µM is less than 30% and the inhibition at 1 µM lay in the range of 30 to 60%.

For `CN1CCC(C2CC2NC(=O)c2cccc(Nc3ccc(-c4cccc(F)c4)cn3)c2)CC1` (stereo not drawn) [Compound 144, 3-((5-(3-fluorophenyl)pyridin-2-yl)amino)-N-(2-(1-methylpiperidin-4-yl)cyclopropyl)benzamide], at human ANO6 [2], the inhibition at 0.1 µM was less than 30% and the inhibition at 1 µM was less than 30%.

Consider `Cc1ccc(CCNC(=O)c2cccc(Nc3ncc(-c4ccccc4)cn3)c2)o1` [Compound 153, N-(2-(5-methylfuran-2-yl)ethyl)-3-((5-phenylpyrimidin-2-yl)amino)benzamide], for which, on human ANO6 [2], the inhibition at 0.1 µM is less than 30% and the inhibition at 1 µM is less than 30%.

`O=C(Nc1ccccc1)c1cccc(Nc2ncc(-c3cccc(F)c3)cn2)c1` [Compound A93]: the inhibition at 0.1 µM at human ANO6 [2] was less than 30%.

Regarding `O=C(NC1(CO)CC1)c1cccc(Nc2ncc(-c3cccc(F)c3)cn2)c1` [Compound 219, 3-((5-(3-fluorophenyl)pyrimidin-2-yl)amino)-N-(1-(hydroxymethyl)cyclopropyl)benzamide], on human ANO6 [2], the inhibition at 0.1 µM was less than 30% and the inhibition at 1 µM was less than 30%.

In the case of `O=C(N[C@@H]1C[C@H]1c1ccccc1)c1ccnc(Nc2ncc(-c3ccccc3)cn2)c1` [Compound 178, N-((1R,2S)-2-phenylcyclopropyl)-2-((5-phenylpyrimidin-2-yl)amino)isonicotinamide], the inhibition at 0.1 µM on human ANO6 [2] lay within 30 to 60%.

Consider `O=C(NCc1ccc(F)c(Cl)c1)c1cccc(Nc2ccc(-c3ccccc3)nn2)c1` [Compound 211, N-(3-chloro-4-fluorobenzyl)-3-((6-phenylpyridazin-3-yl)amino)benzamide], for which, on human ANO6 [2], the inhibition at 0.1 µM was less than 30% and the inhibition at 1 µM is no less than 60%.

On to `O=C(NCc1ccccc1F)c1cccc(Nc2ncc(-c3cccc(F)c3)cn2)c1` [Compound 203, N-(2-fluorobenzyl)-3-((5-(3-fluorophenyl)pyrimidin-2-yl)amino)benzamide], for which, at human ANO6 [2], the inhibition at 0.1 µM is less than 30% and the inhibition at 1 µM was less than 30%.

For the compound `COC(=O)c1ccccc1CCNC(=O)c1cccc(Nc2ncc(-c3cccc(F)c3)cn2)c1` [Compound 127, methyl 2-(2-(3-((5-(3-fluorophenyl)pyrimidin-2-yl)amino)benzamido)ethyl)benzoate], at human ANO6 [2], the inhibition at 0.1 µM is less than 30% and the inhibition at 1 µM was less than 30%.
